Marks after values point to notes of the source that are not given here.
Columns and labels:
[1] = Monomer and tetramer formation of IRPs, size-exclusion HPLC; assay type: physicochemical; details: 100 mg/mL in PBS and 0.5M KCl, room temperature, three weeks
Method: Solutions were prepared of the by mixing 100 mg/mL of the IRP sequences in PBS and 0.5M KCl and storing at room temperature for three to five weeks. The solutions were subsequently analyzed by size-exclusion HPLC.

[2] = High dosages of IRPs in rats (weight, deaths, histology); assay type: in vivo, Sprague Dawley rats; details: rat; for Heart: Cell Vacuolation, number of animals / Heart: Hemorrhage, number of animals / Heart: Mononuclear Cell Infiltration, number of animals / Heart: Necrosis, number of animals / Heart: No significant changes, number of animals / Liver: Liver changes, number of animals / Liver: Mixed cell infiltration, number of animals / Liver: Necrosis, number of animals / Liver: No significant changes, number of animals / Liver: Vacuolation, number of animals / Right Kidney: Hydronephrosis, number of animals / Right Kidney: Mineralization, number of animals / Right Kidney: Necrosis, number of animals / Right Kidney: No significant changes, number of animals / Right Kidney: Tubular basophilia, number of animals / Right Kidney: Tubular changes, number of animals: 6 animals
[3] = High dosages of IRPs in mice (weight, histology); assay type: in vivo, BALB/c mice; details: for Liver: Liver changes, number of animals / Liver: Mixed cell infiltration, number of animals / Liver: No significan changes, number of animals / Right Kidney: No significant changes, number of animals / Right Kidney: Tubular basophilia, number of animals / Right Kidney: Tubular changes, number of animals: 6 animals; for Heart: No significant changes, number of animals: tissue missing in two animals
Summary of the method: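 BALB/c mice (n=5 per group) received IRPs or saline subcutaneously at 4, 20, 50 or 100 mg/kg on days 1, 4, 7 and 10. Body weight tracked over the study; at termination organ weights, tissue oligonucleotide levels and liver, kidney and heart histology were assessed.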

human B-cells = test: Human B-cells cultured in the presence of IRPs, IL-6
[4] = 10 mg/kg, 0 = no change to 4 = severe
[5] = 90 mg/kg, 0 = no change to 4 = severe
[6] = 50 mg/kg, 0 = no change to 4 = severe
[7] = 100 mg/kg, 0 = no change to 4 = severe

5′-TGCTCCTGGAGGGGTTGT-3′ (DNA, backbone not given here) [SEQ ID NO:42]
fraction in monomer form [1]: 54.01% | fraction in tetramer form [1]: 45.99% | organ weight of the liver, heart, kidney, or spleen ([2]; 10 mg/kg or 100 mg/kg SC days 0, 3, 6, 9): no significant difference | Heart: Cell Vacuolation, number of animals ([2]; 10 mg/kg): 0 | Heart: Hemorrhage, number of animals ([2]; 10 mg/kg): 0 | Heart: Mononuclear Cell Infiltration, number of animals ([2]; 10 mg/kg): 1 | Heart: Necrosis, number of animals ([2]; 10 mg/kg): 0 | Heart: No significant changes, number of animals ([2]; 10 mg/kg): 5 | Liver: Liver changes, number of animals ([2]; 10 mg/kg): 1 | Liver: Mixed cell infiltration, number of animals ([2]; 10 mg/kg): 2 | Liver: Necrosis, number of animals ([2]; 10 mg/kg): 0 | Liver: No significant changes, number of animals ([2]; 10 mg/kg): 3 | Liver: Vacuolation, number of animals ([2]; 10 mg/kg): 0 | Right Kidney: Hydronephrosis, number of animals ([2]; 10 mg/kg): 0 | Right Kidney: Mineralization, number of animals ([2]; 10 mg/kg): 3 | Right Kidney: Necrosis, number of animals ([2]; 10 mg/kg): 0 | Right Kidney: No significant changes, number of animals ([2]; 10 mg/kg): 0 | Right Kidney: Tubular basophilia, number of animals ([2]; 10 mg/kg): 0 | Right Kidney: Tubular changes, number of animals ([2]; 10 mg/kg): 6 | Heart: Mononuclear Cell Infiltration, mean severity score [2, 4]: 2.0 | Liver: Liver changes, mean severity score [2, 4]: 1.0 | Liver: Mixed cell infiltration, mean severity score [2, 4]: 1.5 | Right Kidney: Mineralization, mean severity score [2, 4]: 2.0 | Right Kidney: Tubular changes, mean severity score [2, 4]: 1.0 | Kidney: tubular basophilia ([2]; 90 mg/kg): occurred | Liver: hepatocellular necrosis ([2]; 90 mg/kg): hepatocellular necrosis | Heart: Cell Vacuolation, number of animals ([2]; 90 mg/kg): 0 | Heart: Hemorrhage, number of animals ([2]; 90 mg/kg): 0 | Heart: Mononuclear Cell Infiltration, number of animals ([2]; 90 mg/kg): 0 | Heart: Necrosis, number of animals ([2]; 90 mg/kg): 0 | Heart: No significant changes, number of animals ([2]; 90 mg/kg): 6 | Liver: Liver changes, number of animals ([2]; 90 mg/kg): 6 | Liver: Mixed cell infiltration, number of animals ([2]; 90 mg/kg): 4 | Liver: Necrosis, number of animals ([2]; 90 mg/kg): 1 | Liver: No significant changes, number of animals ([2]; 90 mg/kg): 0 | Liver: Vacuolation, number of animals ([2]; 90 mg/kg): 0 | Right Kidney: Hydronephrosis, number of animals ([2]; 90 mg/kg): 0 | Right Kidney: Mineralization, number of animals ([2]; 90 mg/kg): 1 | Right Kidney: Necrosis, number of animals ([2]; 90 mg/kg): 0 | Right Kidney: No significant changes, number of animals ([2]; 90 mg/kg): 0 | Right Kidney: Tubular basophilia, number of animals ([2]; 90 mg/kg): 4 | Right Kidney: Tubular changes, number of animals ([2]; 90 mg/kg): 6 | Liver: Liver changes, mean severity score [2, 5]: 2.3 | Liver: Mixed cell infiltration, mean severity score [2, 5]: 2.1 | Liver: Necrosis, mean severity score [2, 5]: 3.5 | Right Kidney: Mineralization, mean severity score [2, 5]: 1.0 | Right Kidney: Tubular basophilia, mean severity score [2, 5]: 1.5 | Right Kidney: Tubular changes, mean severity score [2, 5]: 2.0 | Heart: Chronic inflammation, number of animals ([3]; 50 mg/kg): 1 | Heart: Mineralization, number of animals ([3]; 50 mg/kg): 1 | Heart: Chronic inflammation, mean severity score [3, 6]: 2.0 | Heart: Mineralization, mean severity score [3, 6]: 3.0 | Liver: Liver changes, mean severity score [3, 6]: 1.0 | Liver: Mixed cell infiltration, mean severity score [3, 6]: 1.8 | Right Kidney: Tubular changes, mean severity score [3, 6]: 1.0 | Liver: Liver changes, number of animals ([3]; 50 mg/kg): 5 | Liver: Mixed cell infiltration, number of animals ([3]; 50 mg/kg): 4 | Liver: No significan changes, number of animals ([3]; 50 mg/kg): 0 | Right Kidney: No significant changes, number of animals ([3]; 50 mg/kg): 1 | Right Kidney: Tubular basophilia, number of animals ([3]; 50 mg/kg): 0 | Right Kidney: Tubular changes, number of animals ([3]; 50 mg/kg): 5 | Heart: No significant changes, number of animals ([3]; 50 mg/kg): 2** | Heart: Chronic inflammation, number of animals ([3]; 100 mg/kg): 0 | Heart: Mineralization, number of animals ([3]; 100 mg/kg): 1 | weight loss as % gain versus pre-dose ([3]; 100 mg/kg SC days 1, 4, 7, 10): but not SEQ ID NO:42 provoked weight loss | Heart: Mineralization, mean severity score [3, 7]: 2.0 | Liver: Liver changes, mean severity score [3, 7]: 1.8 | Liver: Mixed cell infiltration, mean severity score [3, 7]: 2.0 | Right Kidney: Tubular changes, mean severity score [3, 7]: 1.0 | Liver: Liver changes, number of animals ([3]; 100 mg/kg): 6 | Liver: Mixed cell infiltration, number of animals ([3]; 100 mg/kg): 4 | Liver: No significan changes, number of animals ([3]; 100 mg/kg): 0 | Right Kidney: No significant changes, number of animals ([3]; 100 mg/kg): 0 | Right Kidney: Tubular basophilia, number of animals ([3]; 100 mg/kg): 0 | Right Kidney: Tubular changes, number of animals ([3]; 100 mg/kg): 6 | Heart: No significant changes, number of animals ([3]; 100 mg/kg): 3** | GC-induced neutrophil expansion (PDC; lupus-prone mice, blood): reduction of the GC-induced neutrophil expansion | sensitivity to GC of PDC, cDC and B cells (PDC; lupus-prone mice, spleen and blood): enhanced the sensitivity to GC of PDC, cDC and B cells | cell death without GC (PDC; mouse, in vivo): did not induce cell death without GC | Normalized IL-6 Response (Percentage of Positive Control) (human B-cells; Experiment # 1, Max Conc 4.0 uM): 13% | Normalized IL-6 Response (Percentage of Positive Control) (human B-cells; Experiment # 2, Max Conc 4.0 uM): 14% | Normalized IL-6 Response (Percentage of Positive Control) (human B-cells; Experiment # 3, Max Conc 4.0 uM): 5% | Normalized IL-6 Response (Percentage of Positive Control) (human B-cells; Experiment # 4, Max Conc 4.0 uM): 9% | Normalized IL-6 Response (Percentage of Positive Control) (human B-cells; Experiment # 5, Max Conc 4.0 uM): 10% | Normalized IL-6 Response (Percentage of Positive Control) (human B-cells; Experiment # 6, Max Conc 4.0 uM): 6% | Normalized IL-6 Response (Percentage of Positive Control) (human B-cells; Experiment # 7, Max Conc 4.0 uM): 9% | Normalized IL-6 Response (Percentage of Positive Control) (human B-cells; Experiment # 8, Max Conc 2.0 uM): 8% | Normalized IL-6 Response (Percentage of Positive Control) (human B-cells; Experiment # 9, Max Conc 2.0 uM): 6% | Normalized IL-6 Response (Percentage of Positive Control) (human B-cells; Experiment # 10, Max Conc 2.0 uM): 18% | Normalized IL-6 Response (Percentage of Positive Control) (human B-cells; Experiment # 11, Max Conc 2.0 uM): 10% | B-cell response as evidenced by IL-6 produced (human B-cells; human B-cells with IRP alone, 48 hours, FIGS. 1A-B): did not induce any B-cell response

Reference: patent US8940310B2, “Methods of treatment using TLR7 and/or TLR9 inhibitors” (Dynavax Technologies Corporation, priority 2010, dated 2015)
